Experimental data reported in patent US11628133B2, “Uses of the peptide of sequence His-D-Trp-Ala-Trp-d-Phe-Lys-NH2 for reducing or delaying the appearance of cell senescence and signs of skin aging” (ISP INVESTMENTS LLC, priority 2015, dated 2023).
Where no end group is shown, it is not given here. [ ]: non-standard residue; d: D form.

Key:
prolidase [1] = assay: Activity of prolidase in human fibroblasts (Gly-Pro substrate, Chinard's reagent); type: cell-based; settings: untreated = 100
Description: Protocol: Cultured human fibroblasts were treated with hexapeptide-2 in a concentration of 0.5 and 1 μM after dilution in a culture medium, for 24 hours (2 applications per day). At the same time, fibroblasts were treated with an activator and an inhibitor of prolidase: retinoic acid (Sigma, Ref. R2625) and Cpz-Pro (Bachem, Ref. 4001343). Next, the cells were detached from the dish with the aid of a 150 mM NaCl solution. After having recovered the cellular pellet and activating the prolidase with a solution containing 2 mM MnCl2 for 2 hours at 37° C., the prolidase substrate was added: 47 mM of Glycine-Proline (Sigma, Ref. G3002) for 1 hour at 37° C. Next, the amount of proline contained in each sample was determined at a wavelength of 515 nm using Chinard's reagent. At the same time, a proline concentration range was produced in order to establish a calibration curve. The amount of protein was determined using the BCA protein assay kit (Thermo Scientific, Ref. 23225), which enabled the ratio of proline to the number of proteins in each sample to be recorded.

prolidase [2] = assay: Expression of prolidase in human fibroblasts (immunofluorescence); type: cell-based; settings: 24 hours, 2 applications per day, untreated = 100
Description: Protocol: Cultured human fibroblasts were treated with hexapeptide-2 in a final concentration of 0.5 and 1 μM after dilution in a culture medium, for 24 hours (2 applications per day). The cells were then washed, fixed with cold methanol for 4 minutes at 4° C. The cells were incubated in the presence of a mouse monoclonal antibody specific for prolidase (LifeSpan BioSciences, Ref. LS-C115644), then of an anti-mouse secondary antibody coupled to a fluorochrome (Invitrogen, Ref. A21202). The cells were then examined under an epifluorescence microscope (Zeiss Axiovert 200M microscope). Quantification of the fluorescence was carried out from the photographs obtained.

collagen I [3] = assay: Expression of intracellular collagen I in human fibroblasts by flow cytometry; type: cell-based; settings: untreated = 100
Description: Protocol: Cultured human fibroblasts were treated with hexapeptide-2 in a concentration of 0.5 and 1 μM after dilution in a culture medium, for 48 hours (2 applications per day). At the same time, fibroblasts were treated with an activator for collagen I: TGF-β (R&D system, Ref. 240B). The fibroblasts were trypsinated and the cellular pellet was recovered. The cells were then fixed with cold methanol for 15 minutes at 4° C. Immunolabelling was carried out with the aid of a mouse monoclonal antibody specific for collagen I (Millipore, Ref: anti-Collagen Type I, Clone: 5D8-G9) coupled with a fluorochrome. Next, 10 000 cells were analysed by flow cytometry (Guava EasyCyte) in order to determine the amount of fluorescence in each of them.

collagen I [4] = assay: Expression of collagen I in human skin in ex vivo culture; type: cell-based; settings: 48 hours, untreated = 100
Description: (§1) Protocol: Samples of human skin were cultured at the air/liquid interface. Hexapeptide-2 was applied topically to the samples in concentrations of 0.5 and 1 μM after dilution in a culture medium, in an amount of 2 applications per day, then the samples were incubated for 48 hours at 37° C.
(§2) These skin samples were subsequently fixed with formaldehyde then included into paraffin. 4 μm sections were then produced.
(§3) Labelling of the collagens I and III was then carried out after demasking specific sites by microwave incubation then by treatment with trypsin. The immunolabelling was carried out with the aid of a rabbit polyclonal antibody specific for collagen I (Rockland, Ref. 600-401-103-0.5), a rabbit polyclonal antibody specific for collagen III (Rockland, Ref 600-401-105-0.5), then an anti-rabbit secondary antibody coupled to a fluorochrome (Invitrogen, Ref. A21206). The cells were then examined under an epifluorescence microscope (Zeiss Axiovert 200M microscope). A quantification of the fluorescence from the photographs obtained was carried out.

collagen III = assay: Expression of collagen III in human skin in ex vivo culture; type: cell-based; settings: 48 hours, untreated = 100
Description: as §1, §2, §3

miRNA-29a 3p [5] = assay: Expression of miRNA-29a 3p in human fibroblasts from donors of different ages (qPCR); type: cell-based; settings: overnight, concentration (0.5 or 1 μM) not stated
Description: Protocol: Human fibroblasts from 3 donors were treated with hexapeptide-2 in a concentration of 0.5 and 1 μM in culture medium overnight (1 application).
The miRNAs were extracted with the aid of an extraction kit (Ambion, Ref. AM1561), then reverse transcribed with a specific kit (Applied Biosystem, Ref 4374966). A real time PCR was carried out in a thermocycler using a TaqMan Gene Expression Assay specific for miRNA-29a 3p (Applied Biosystems, Ref 002112) and a TaqMan Gene Expression Assays specific for RNU44 used as the control endogen (Applied Biosystems, Ref. 001094). The relative quantification if the expression of miRNA-29a 3p was carried out by the comparative Ct method.

[6] = system: human fibroblasts made senescent by transfection with the siRNA FOXO3a; assay: Activity of β-galactosidase in human fibroblasts made senescent by transfection with the siRNA FOXO3a; type: cell-based; settings: 1 μM, 48 hours, siRNA FOXO3a transfected cells; results not shown
Description: Protocol: Cultured human fibroblasts were treated or not treated with a specific siRNA of FOXO3a (Invitrogen, Ref. HSS177176) in a final concentration of 25 nM using the technique of transfection by Lipofectamine™ RNAiMAX (Invitrogen, Ref 56531) and treated or not treated with hexapeptide-2 in a final concentration of 1 μM in culture medium, for 48 hours (2 applications per day).
The cells were rinsed and fixed in a fixing buffer (0.2% glutaraldehyde, 2% formaldehyde). The cells were then incubated at 37° C. without CO2 for 24 hours, with a solution of 1 mg/mL X-Gal in 40 mM of citric acid/phosphate (pH 6), 5 mM K3FeCN6, 5 mM K4FeCN6, 150 mM NaCl and 2 mM MgCl2. The cells were then examined under white light with a microscope (Nikon Eclipse E600 microscope).

collagen I [7] = assay: Expression of collagen I in human fibroblasts made senescent by transfection with the siRNA FOXO3a; type: cell-based; settings: 0.5 or 1 μM, 48 hours, siRNA FOXO3a transfected cells
Description: Protocol: Cultured human fibroblasts were treated or not treated with a specific siRNA of FOXO3a (Invitrogen, Ref. HSS177176) in a final concentration of 25 nM using the technique of transfection by Lipofectamine™ RNAiMAX (Invitrogen, Ref. 56531) and treated or not treated with hexapeptide-2 in a concentration of 0.5 or 1 μM in culture medium, for 48 hours (2 applications per day).
The fibroblasts were trypsinated and the cellular pellet was recovered. The cells were then fixed with cold methanol for 15 minutes at 4° C. Immunolabelling was carried out with the aid of a mouse monoclonal antibody specific for collagen I (Millipore, Ref. anti-Collagen Type I, Clone: 5D8-G9) coupled with a fluorochrome. Next, 10 000 cells were analysed using flow cytometry (Guava EasyCyte) in order to determine the level of fluorescence in each of them.

[8] = system: human fibroblasts made senescent by replicative senescence; assay: Activity of β-galactosidase in human fibroblasts made senescent by replicative senescence (long-term treatment); type: cell-based; settings: 1 μM daily, long-term (about 3 months), general over passes
Description: Protocol: Human fibroblasts were cultured in a specific medium and maintained under culture (for more than 27 passes) and treated or not treated with a daily application of hexapeptide-2 in a concentration of 1 μM in the culture medium, (i.e. 5 applications per week). A portion of the cells was frozen in each pass. Next, key passes were selected: passes 4, 12, 16, 20, 24 and 27. After freezing, the senescent phenotype of the fibroblasts treated or not treated with 1 μM hexapeptide-2 was evaluated by assaying the activity of β-galactosidase.
(§4) To this end, the cells were rinsed and fixed in a fixing buffer (0.2% glutaraldehyde, 2% formaldehyde). The cells were then incubated, at 37° C. without CO2 for 24 hours, with a solution of 1 mg/mL X-Gal in 40 mM of citric acid/phosphate (pH 6), 5 mM K3FeCN6, 5 mM K4FeCN6, 150 mM NaCl and 2 mM MgCl2. The cells were then examined under white light with a microscope (Nikon Eclipse E600 microscope).

[9] = system: senescent human fibroblasts by replicative senescence; assay: Activity of β-galactosidase in senescent human fibroblasts by replicative senescence (short-term treatment); type: cell-based; settings: 1 μM, 48 hours, general over passes
Description: Protocol: Human fibroblasts were cultured in a specific medium and maintained under long-term culture treatment (for more than 28 passes, i.e. approximately 3 months). A portion of the cells was frozen in each pass. Next, key passes were selected: passes 4, 12, 16, 20 and 28. After freezing, the fibroblasts were treated with 1 μM hexapeptide-2 in culture medium, for 48 hours (2 applications per day). The senescent phenotype of the fibroblasts treated or not treated with 1 μM hexapeptide-2 was evaluated by assaying the activity of the β-galactosidase.
as §4

prolidase [10] = assay: Activity of prolidase in human fibroblasts made senescent by replicative senescence (long-term treatment); type: cell-based; settings: 1 μM daily long-term
Description: Protocol: Human fibroblasts were cultured in a specific medium and maintained under long-term culture treatment (for more than 20 passes, i.e. approximately 3 months), treated or not treated with the aid of a daily application of hexapeptide-2 in a concentration of 1 μM in culture medium, (5 applications per week). A portion of the cells was frozen for each pass. Next, two passes were selected: passes 12 and 20.
To this end, the cells were detached from their support with a solution of 150 mM NaCl. After recovering the cellular pellet and activating the prolidase with a solution containing 2 mM of MnCl2 for 2 hours at 37° C., the substrate for the prolidase was added: 47 mM of Glycine-Proline (Sigma, Ref. G3002), for 1 hour at 37° C. Next, the proline content contained in each sample was determined at a wavelength of 515 nm using Chinard's reagent. At the same time, a concentration range for proline was produced in order to establish a calibration curve. The protein content was determined using the BCA protein assay kit (Thermo Scientific, Ref. 23225), in order to relate the proline content with the number of proteins in each sample.

miRNA-29a 3p [11] = assay: Expression of miRNA-29a 3p in human fibroblasts made senescent by replicative senescence (long-term treatment); type: cell-based
Description: Protocol: Human fibroblasts were cultured in a specific medium and maintained under a long-term culture treatment (for more than 24 passes, i.e. approximately 3 months), treated or not treated by means of a daily application of hexapeptide-2 in a concentration of 1 μM in culture medium, (5 applications per week). For each pass, a portion of the cells was frozen. Next, three passes were selected: passes 4, 12 and 24.
The miRNAs were extracted with the aid of an extraction kit (Ambion, Ref AMI1561), then reverse transcribed with a specific kit (Applied Biosystems, Ref 4374966). A real-time PCR was carried out in a thermocycler with the aid of a TaqMan Gene Expression Assay specific for miRNA-29a 3p (Applied Biosystems, 002112) and a TaqMan Gene Expression Assay specific for RNU44 used as an endogenic control (Applied Biosystems, 001094). The relative quantification of the expression of miRNA-29a 3p was carried out using the comparative Ct method.

collagen = settings: concentrations of 1 μM, 10 μM and 100 μM; cited from earlier work

Compound: O=C(O)[C@@H]1CCCN1C(=O)OCc1ccccc1 [Cpz-Pro, reference compound]
- Activity of prolidase (%) (prolidase [1]; 10 mM): 90%

Compound: CC1=C(/C=C/C(C)=C/C=C/C(C)=C/C(=O)O)C(C)(C)CCC1 [retinoic acid, reference compound]
- Activity of prolidase (%) (prolidase [1]; 1 μM, 24 hours): 105%

Compound: His-D-Trp-Ala-Trp-D-Phe-Lys-NH2 (H[dW]AW[dF]K-NH2) [hexapeptide-2]
- Expression of prolidase (intensity/area of cells (%)) (prolidase [2]; 0.5 μM): 118%
- Expression of prolidase (intensity/area of cells (%)) (prolidase [2]; 1 μM): 128%
- Activity of prolidase (%) (prolidase [1]; 0.5 μM, 24 hours): 122%
- Activity of prolidase (%) (prolidase [1]; 1 μM, 24 hours): 114%
- Expression of collagen I (%) (collagen I [3]; 0.5 μM, 48 hours): 120%
- Expression of collagen I (%) (collagen I [3]; 1 μM, 48 hours): 145%
- Expression of collagen I (%) (collagen I [4]; 0.5 μM topical): 119%
- Expression of collagen I (%) (collagen I [4]; 1 μM topical): 154%
- Expression of Collagen III (%) (collagen III; 0.5 μM topical): 155%
- Expression of Collagen III (%) (collagen III; 1 μM topical): 155%
- reduction in the expression of miRNA-29a 3p (miRNA-29a 3p [5]; fibroblasts of donor one): −14%
- reduction in the expression of miRNA-29a 3p (miRNA-29a 3p [5]; fibroblasts of donor three): −27%
- reduction in the expression of miRNA-29a 3p (miRNA-29a 3p [5]; fibroblasts of donor two): −13%
- activity of β-galactosidase linked to senescence (number of blue-stained cells) [6]: visible reduction in the activity of β-galactosidase
- expression of collagen I in senescent cells (collagen I [7]): smaller reduction in the expression of collagen I
- reduction in the activity of beta-galactosidase compared with untreated cells [8]: −22%
- reduction in the activity of the β-galactosidase compared with untreated cells [9]: −31%
- restoration in the activity of prolidase compared with untreated control cells in the same pass (prolidase [10]; senescent cells (P20)): 20%
- effect on activity of prolidase (prolidase [10]; young cells (P12)): little or no effect
- effect on the expression of miRNA-29a 3p (miRNA-29a 3p [11]; pass 4, 1 μM daily long-term): no effect
- reduction in the expression of miRNA-29a 3p (miRNA-29a 3p [11]; pass 12, 1 μM daily long-term): −16%
- reduction in the expression of miRNA-29a 3p (miRNA-29a 3p [11]; pass 24, 1 μM daily long-term): −7%
- effect on the secretion of collagen by fibroblasts cultured in vitro (collagen): no effect

Compound: TGF-β: activator for collagen I (R&D system, Ref. 240B)
- Expression of collagen I (%) (collagen I [3]; 10 ng/ml): 182%
